# Assay results published in patent US20230094076A1, “COMBINATION THERAPY” (GlaxoSmithKline Intellectual Property Development Limited, priority 2016, published 2023).
# How the values were obtained:
# [1] = system: 196 human cancer cell lines (Total); conditions: percent of cell lines, 196 cell lines
# Procedure: (§1) The growth of all cell lines was evaluated over time across a wide range of seeding densities to identify conditions that permitted proliferation throughout the entire 6-day assay. Cells were plated at the optimal seeding density and after overnight incubation, a 20-point 2-fold titration of compound was added and plates were incubated for 6 days. A replicate plate of cells was harvested at the time of compound addition to quantify the starting number of cells (T0). Values obtained after the 6 day treatment were expressed as a function of the T0 value and plotted against compound concentration. The T0 value was normalized to 100% and represents the number of cells at the time of compound addition. The data were fit with a 4 parameter equation to generate a concentration response curve and the growth IC50 (gIC50) was determined. The gIC50 is the midpoint of the ‘growth window’, the difference between the number of cells at the time of compound addition (To) and the number of cells after 6 days (DMSO control). The growth-death assay can be used to quantify the net population change, clearly defining cell death (cytotoxicity) as fewer cells compared to the number at the time of compound addition (T0).
# 769-P = conditions: ccRCC, 6-day
# Procedure: as §1
# 786-O = conditions: ccRCC, 6-day
# Procedure: as §1
# A375 = conditions: A375, melanoma, 6-day
# Procedure: as §1
# A498 = conditions: A498, ccRCC, 6-day
# Procedure: as §1
# ACHN = conditions: ccRCC, 6-day
# Procedure: as §1
# AML cell lines = conditions: 10 cell lines
# Procedure: as §1
# Breast cancer cell lines = conditions: percent of cell lines, 29 cell lines
# Procedure: as §1
# CAKI-1 = conditions: CAKI-1, ccRCC, 6-day
# Procedure: as §1
# CAKI-2 = conditions: CAKI-2, ccRCC, 6-day
# Procedure: as §1
# COLO741 = conditions: COLO741, melanoma, 6-day
# Procedure: as §1
# Colon cancer cell lines = conditions: percent of cell lines, 34 cell lines
# Procedure: as §1
# G-401 = conditions: G-401, Wilm's, 6-day
# Procedure: as §1
# G-402 = conditions: G-402, Leiomyoblastoma, 6-day
# Procedure: as §1
# HL-60 = conditions: HL-60, AML subtype M3, 6-day
# Procedure: as §1
# HT144 = conditions: HT144, melanoma, 6-day
# Procedure: as §1
# IGR-1 = conditions: IGR-1, melanoma, 6-day
# Procedure: as §1
# Lymphoma cell lines = conditions: 59 cell lines
# Procedure: as §1
# MDA-MB- = conditions: melanoma, 6-day
# Procedure: as §1
# MOLM-13 = conditions: MOLM-13, AML subtype M5, 6-day
# Procedure: as §1
# MOLM-16 = conditions: MOLM-16, AML subtype M0, 6-day
# Procedure: as §1
# Melanoma cell lines = conditions: 7 cell lines
# Procedure: as §1
# NOMO-1 = conditions: NOMO-1, AML subtype M5, 6-day
# Procedure: as §1
# NSCLC cell lines = conditions: percent of cell lines, 25 cell lines
# Procedure: as §1
# OCI- = conditions: AML subtype M4, 6-day
# Procedure: as §1
# [2] = system: Prostate cancer cell lines; conditions: 4 cell lines
# Procedure: as §1
# SHI-1 = conditions: SHI-1, AML subtype M5, 6-day
# Procedure: as §1
# SK-MEL-2 = conditions: SK-MEL-2, melanoma, 6-day
# Procedure: as §1
# SK-MEL-5 = conditions: SK-MEL-5, melanoma, 6-day
# Procedure: as §1
# SK-NEP-1 = conditions: SK-NEP-1, Wilm's, 6-day
# Procedure: as §1
# SKM-1 = conditions: SKM-1, AML subtype M5, 6-day
# Procedure: as §1
# SW156 = conditions: SW156, ccRCC, 6-day
# Procedure: as §1
# TF-1 = conditions: TF-1, AML subtype M6, 6-day
# Procedure: as §1
structure (smiles),measurement,setting,value
CCOCC1(COCC)CCC(c2n[nH]cc2CN(C)CCNC)CC1 [Compound A],% gIC100 < 2,[1],4%
same,Ymin − T0,769-P,119.0
same,Ymin − T0,786-O,643.7
same,Ymin − T0,A375,91.9
same,gIC100,A375,29.33 ± 0.00 µM
same,Ymin − T0,A498,313.4
same,Ymin − T0,ACHN,96.5
same,number of cell lines with induced cytotoxicity,AML cell lines; 6-day proliferation assay,5
same,% Cytotoxic,AML cell lines; percent of cell lines,50%
same,% gIC100 < 2,AML cell lines; percent of cell lines,0%
same,% Cytotoxic,Breast cancer cell lines,10%
same,% gIC100 < 2,Breast cancer cell lines,0%
same,Ymin − T0,CAKI-1,178.7
same,Ymin − T0,CAKI-2,169.6
same,Ymin − T0,COLO741,12.5
same,gIC100,COLO741,28.55 ± 1.40 µM
same,% Cytotoxic,Colon cancer cell lines,3%
same,% gIC100 < 2,Colon cancer cell lines,0%
same,Ymin − T0,G-401,353.7
same,Ymin − T0,G-402,92.6
same,gIC100,HL-60,6.38 ± 12.83 µM
same,Ymin − T0,HL-60; negative = cell death,−33.4
same,Ymin − T0,HT144,124.9
same,gIC100,HT144,29.33 ± 0.00 µM
same,Ymin − T0,IGR-1,507.0
same,gIC100,IGR-1,29.33 ± 0.00 µM
same,Median gIC100,Lymphoma cell lines; 6-day proliferation,21.62 µM
same,% Cytotoxic,Lymphoma cell lines; percent of cell lines,54%
same,% gIC100 < 2,Lymphoma cell lines; percent of cell lines,14%
same,Ymin − T0,MDA-MB-,19.1
same,gIC100,MDA-MB-,29.33 ± 0.00 µM
same,gIC100,MOLM-13,8.64 ± 0.39 µM
same,Ymin − T0,MOLM-13; negative = cell death,−100.0
same,gIC100,MOLM-16,9.69 ± 10.58 µM
same,Ymin − T0,MOLM-16; negative = cell death,−68.6
same,Median gIC100,Melanoma cell lines; 6-day proliferation,29.33 µM
same,% Cytotoxic,Melanoma cell lines; percent of cell lines,0%
same,% gIC100 < 2,Melanoma cell lines; percent of cell lines,0%
same,gIC100,NOMO-1,29.33 ± 0.00 µM
same,Ymin − T0,NOMO-1; negative = cell death,259.1
same,% Cytotoxic,NSCLC cell lines,16%
same,% gIC100 < 2,NSCLC cell lines,0%
same,gIC100,OCI-,29.33 ± 0.00 µM
same,Ymin − T0,OCI-; negative = cell death,523.2
same,Median gIC100,[2]; 6-day proliferation,29.34 µM
same,% Cytotoxic,[2]; percent of cell lines,0%
same,% gIC100 < 2,[2]; percent of cell lines,0%
same,gIC100,SHI-1,29.33 ± 0.02 µM
same,Ymin − T0,SHI-1; negative = cell death,292.0
same,Ymin − T0,SK-MEL-2,35.9
same,gIC100,SK-MEL-2,22.37 µM
same,Ymin − T0,SK-MEL-5,31.8
same,gIC100,SK-MEL-5,27.09 ± 3.92 µM
same,Ymin − T0,SK-NEP-1,25.3
same,gIC100,SKM-1,11.61 ± 5.52 µM
same,Ymin − T0,SKM-1; negative = cell death,−19.1
same,Ymin − T0,SW156,346.7
same,gIC100,TF-1,29.33 ± 0.00 µM
same,Ymin − T0,TF-1; negative = cell death,788.1
